Results on 4 compounds are retold here after PMC3403540, “Active Hydrophilic Components of the Medicinal Herb Salvia miltiorrhiza (Danshen) Potently Inhibit Organic Anion Transporters 1 (Slc22a6) and 3 (Slc22a8)” (Evidence-based Complementary and Alternative Medicine : eCAM, 2012).

The target of the assay is T1, mOat1 (Mus musculus, UniProt Q8VC69).
T1 construct: expressed in transfected cells; host or cells: CHO (Chinese hamster ovary), stably transfected (CHO-mOat1)
T1 sequence (Q8VC69 1-545): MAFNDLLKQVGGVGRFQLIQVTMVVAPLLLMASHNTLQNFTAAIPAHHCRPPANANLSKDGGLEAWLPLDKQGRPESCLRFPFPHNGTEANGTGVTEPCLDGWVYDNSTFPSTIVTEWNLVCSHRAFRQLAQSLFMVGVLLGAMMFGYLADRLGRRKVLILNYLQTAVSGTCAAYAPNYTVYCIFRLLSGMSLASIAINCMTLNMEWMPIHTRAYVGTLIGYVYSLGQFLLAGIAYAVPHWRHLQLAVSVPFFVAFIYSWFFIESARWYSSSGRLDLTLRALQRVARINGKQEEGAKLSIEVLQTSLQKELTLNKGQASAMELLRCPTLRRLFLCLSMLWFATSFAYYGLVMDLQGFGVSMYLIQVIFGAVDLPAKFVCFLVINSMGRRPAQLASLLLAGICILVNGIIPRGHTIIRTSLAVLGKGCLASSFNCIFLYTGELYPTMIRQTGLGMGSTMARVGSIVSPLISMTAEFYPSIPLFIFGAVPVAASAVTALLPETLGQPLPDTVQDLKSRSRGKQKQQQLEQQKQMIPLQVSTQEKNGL
Put plainly: Inhibition of mOat1-mediated [3H]PAH uptake in CHO-mOat1 cells (cell accumulation assay). To be noted: for Estimated α value from mixed inhibition model analysis, mOat1: 5 μM PAH for 2 min, mean, α > 1 indicates competitive inhibition; for Ki / inhibition at 1000 µM: 5 μM [3H]PAH; for Ki: 2 min, CHO-mOat1, mean ± S.E.M. (n = 3), from IC50 via Cheng-Prusoff, read-out: Estimated K i for mOat1-mediated transport; for inhibition at 1000 µM: 1 mM (1000 μM) inhibitor, 10 min, CHO-mOat1 cells, read-out: inhibition of mOat1-mediated PAH uptake; for mode of inhibition of mOat1-mediated transport: mixed inhibition model, PAH substrate; for K i ratio (mOat1/mOat3): ratio of Ki on mOat1 to Ki on mOat3. In kind it is cell-based, murine. As to the method:
Derivation of the stably transfected Chinese hamster ovary (CHO) cell lines expressing mOat1 (CHO-mOat1), mOat3 (CHO-mOat3), and the empty vector (FRT) transfected control cell line (CHO-FRT) was described previously.
Cell transport assay procedures were adapted from those previously published. In brief, 2 × 10^5 cells/well were seeded in 24-well tissue culture plates and grown in the absence of antibiotics for 48 hr. On the day of the experiment, cells were equilibrated with transport buffer for 10 min (500 μL of Hanks' balanced salt solution containing 10 mM HEPES, pH 7.4). […] After incubation, cells were immediately rinsed three times with ice-cold transport buffer, lysed, and analyzed via liquid scintillation counting. Uptake values were normalized to corresponding total protein content in cell lysates as determined by the Bradford method. Substrate accumulation is reported as picomoles of substrate per milligram protein. […] Kinetic calculations were performed using GraphPad Prism Software version 5.0 (GraphPad Software Inc., San Diego, CA, USA). Michaelis constant (K m) values were calculated by nonlinear regression using the Michaelis-Menten model. […] In this study, three curves were constructed (no inhibitor, plus two selected inhibitor concentrations) with uptake of substrate plotted as a function of its concentration for each condition. […] The parameter, α, can then be used to determine the mode of inhibition. When α is very large (α > 1), it indicates competitive inhibition. […] Results were confirmed by repeating all experiments at least three times with triplicate wells for each data point in every experiment.
Figure 3 Michaelis-Menten kinetics of PAH transport in CHO-mOat1 cells. In order to calculate K i values for mOat1, the K m value for PAH needed to be determined in the CHO-mOat1 cell system. […] The corrected curve (closed circles) was obtained by subtracting the nonspecific background uptake as measured in the CHO-FRT cells from CHO-mOat1 accumulation to allow analysis of mOat1-mediated activity. Experiments were repeated three times in triplicate, and Michaelis constant (K m) values were calculated by nonlinear regression using the Michaelis-Menten model. […] Graph shown is from a representative experiment with values plotted as mean ± S.D. (n = 3).
Figure 2 Inhibition profile of mOat1 and mOat3. […] (b) Inhibition of mOat3-mediated uptake of [^3H]ES (1 μM) by LSA, PCA, RMA, SAA, SAB, TSL, and probenecid (1000 μM) was measured in the CHO-mOat3 cells (10 min). […] Values are mean ± S.D. of triplicate values. ***denotes P < 0.001 as determined by one-way ANOVA followed by Dunnett's t-test.
Figure 4 K i determination for LSA, RMA, and SAA in the CHO-mOat1 cell line. […] (5 μM) in CHO-mOat1 cells was measured in the presence of increasing concentrations (10^−7 to 5 × 10^−4 M) of LSA, RMA, and SAA. Data were corrected for nonspecific background measured in the CHO-FRT cells prior to kinetic analysis. K i values were determined with non-linear regression and the “one-site competition” model using GraphPad Prism software. Graphs shown are from representative experiments with values plotted as mean ± S.D. (n = 3).

Structures are written as SMILES.

Consider `O=C(/C=C/c1ccc(O)c2c1[C@H](C(=O)O)[C@@H](c1ccc(O)c(O)c1)O2)O[C@H](Cc1ccc(O)c(O)c1)C(=O)O` [LSA, lithospermic acid], for which the “Estimated α value from mixed inhibition model analysis, mOat1” value is recorded as 6.7 × 10^11; the Ki was 14.9 ± 4.9 µM; the inhibition (commonly the change of the read-out against control, counted positive when it falls) at 1000 µM lay in the range of 70 to 85%; the “mode of inhibition of mOat1-mediated transport” value is “competitive”. For the same compound, the “K i ratio (mOat1/mOat3)” value worked out at 0.48.

As to `O=C(/C=C/c1ccc(O)c(O)c1)O[C@H](Cc1ccc(O)c(O)c1)C(=O)O` [RMA, rosmarinic acid], the “Estimated α value from mixed inhibition model analysis, mOat1” value is given as 1.3 × 10^12; the Ki is 5.5 ± 2.2 µM; the inhibition at 1000 µM is greater than 95%; the “mode of inhibition of mOat1-mediated transport” value is given as “competitive”. The “K i ratio (mOat1/mOat3)” value is on record as 1.29.

Consider `O=C(/C=C/c1ccc(O)c(O)c1/C=C/c1ccc(O)c(O)c1)O[C@H](Cc1ccc(O)c(O)c1)C(=O)O` [SAA, salvianolic acid A], for which the “Estimated α value from mixed inhibition model analysis, mOat1” value is on record as 2.6 × 10^14; the Ki is 4.9 ± 2.2 µM; the inhibition at 1000 µM was greater than 95%; the “mode of inhibition of mOat1-mediated transport” value is “competitive”. Besides, the “K i ratio (mOat1/mOat3)” value was 0.23.

`O=C(O)C(O)Cc1ccc(O)c(O)c1` (stereo not shown) [TSL, tanshinol]: the inhibition at 1000 µM fell in the range of 70 to 85%.
